Data taken from article PMC6524645 (Cell, 2018).

Experiments:
P. syringae SelO = P. syringae SelO (Pseudomonas syringae group genomosp. 3, UniProt Q87VB1); experiment: X-ray crystal structure, […] Å; format: binding; settings: active site, nucleotide flipped; Mg2+ and Ca2+ bound; pH 8; 20 °C
non-reducing SDS-PAGE = biological target: the molecule itself; experiment: non-reducing SDS-PAGE

Sequence of P. syringae SelO (Q87VB1 whole entry): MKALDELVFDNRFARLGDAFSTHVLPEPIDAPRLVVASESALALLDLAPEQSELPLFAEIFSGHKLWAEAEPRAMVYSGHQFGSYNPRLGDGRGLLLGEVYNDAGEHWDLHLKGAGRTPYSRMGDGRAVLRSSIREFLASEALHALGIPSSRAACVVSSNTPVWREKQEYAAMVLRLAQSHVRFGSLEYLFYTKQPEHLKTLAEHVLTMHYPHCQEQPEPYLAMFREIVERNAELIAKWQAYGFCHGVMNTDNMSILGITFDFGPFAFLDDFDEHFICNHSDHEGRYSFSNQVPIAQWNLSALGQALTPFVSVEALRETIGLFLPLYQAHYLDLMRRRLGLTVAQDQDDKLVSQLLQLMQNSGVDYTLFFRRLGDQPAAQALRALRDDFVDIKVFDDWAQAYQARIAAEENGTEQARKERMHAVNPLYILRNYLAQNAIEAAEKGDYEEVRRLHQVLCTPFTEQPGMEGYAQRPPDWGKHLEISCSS

| Molecule | X-ray crystal structure, 2.27 Å (P. syringae SelO) | stoichiometry N (non-reducing SDS-PAGE) |
| --- | --- | --- |
| Nc1ncnc2c1ncn2[C@@H]1O[C@H](COP(=O)(O)OP(=O)(O)NP(=O)(O)O)[C@@H](O)[C@H]1O [AMP-PNP] | bound to an ATP derivative AMP-PNP |  |
| E. coli SelO (ydiU) C272A mutant (enzyme, UniProt P77649 1-478, looked up, intermolecular disulfide between the two copies (cysteine not named)) MTLSFVTRWRDELPETYTALSPTPLNNARLIWHNTELANTLSIPSSLFKNGAGVWGGEALLPGMSPLAQVYSGHQFGVWAGQLGDGRGILLGEQLLADGTTMDWHLKGAGLTPYSRMGDGRAVLRSTIRESLASEAMHYLGIPTTRALSIVTSDSPVYRETAEPGAMLMRVAPSHLRFGHFEHFYYRRESEKVRQLADFAIRHYWSHLADDEDKYRLWFSDVVARTASLIAQWQTVGFAHGVMNTDNMSLLGLTLDYGPFGFLDDYEPGFIANHSDHQGRYSFDNQPAVALWNLQRLAQTLSPFVAVDALNEALDSYQQVLLTHYGERMRQKLGFMTEQKEDNALLNELFSLMARERSDYTRTFRMLSLTEQHSAASPLRDEFIDRAAFDDWFARYRGRLQQDEVSDSERQQLMQSVNPALVLRNWLAQRAIEAAEKGDMTELHRLHEALRNPFSDRDDDYVSRPPDWGKRLEVSCSS |  | 2 |
